Source: patent publication US5731326A, “PDGF antagonists II” (ZymoGenetics, Inc., priority 1996, dated 1998)

Test system: baboon smooth muscle cells
Test: Inhibition of PDGF-BB mitogenic activity on baboon smooth muscle cells ([3H] thymidine incorporation)
Type: cell-based
Conditions: for 3H Thymidine (CPM Incorporated), (-) Heparin: no heparin, control 1701
Procedure: NNC92-0270 was analyzed for the ability to inhibit the mitogenic activity of PDGF on baboon smooth muscle cells. All mitogenesis assays performed on baboon vascular smooth muscle cells (BVSMCs) were done on primary cultures of cells between passages 13 and 20 in culture. The initial cultures were established from outgrowth of aortic tissue explants. Baboon smooth muscle cells were plated at approximately 20,000 cells per well, in DMEM supplemented with 10% fetal calf serum, into 24-well culture dishes. One day prior to use the culture media was removed, and 1 ml of Mito Media (Table 5) was added to each well to allow the cells to become quiescent. At the time of the experiment the cells were stimulated with PDGF-BB. […] 20× stock solutions were made for each of the PDGF concentrations by dilution in 10 mM acetic acid containing 0.25% albumin, and 50 ul PDGF or dilution vehicle alone was added to the culture wells.
To analyze the activity of NNC92-0270 to neutralize PDGF-BB mitogenic activity, 1 ng/ml of PDGF was added to wells along with dilutions of NNC92-0270. The cells were incubated with the test samples for approximately 20 hours at 37 ° C. Fifty microliters of a 20× stock solution of [3H] Thymidine was then added to each well to give a final concentration of 1 μCi/ml. The cells were incubated for 4 hours at 37 ° C., washed with PBS, then harvested with trypsin and counted for [^3 H] thymidine incorporation in a Wallac (Turku, Finland) Betaplate™ liquid scintillation counter.
NNC92-0270 was incubated with 1 ng/ml of PDGF-BB in the presence of 0.5 U/ml of unfractionated heparin. The cells were pulse labeled with [^3 H] thymidine as described above and the level of [^3 H] thymidine determined.

Compound: O=C(NN1CCCCC1)NS(=O)(=O)c1ccc(CCNC(=O)c2[nH]c3ccccc3c2OCc2ccccc2)cc1 [NNC92-0270]
- 3H Thymidine (CPM Incorporated), (+) 0.5 U/ml Heparin (6.2 μM with 1 ng/ml PDGF-BB and 0.5 U/ml heparin): 1007 CPM
- 3H Thymidine (CPM Incorporated), (-) Heparin (6.2 μM with 1 ng/ml PDGF-BB): 1378 CPM
- 3H Thymidine (CPM Incorporated), (+) 0.5 U/ml Heparin (12.5 μM with 1 ng/ml PDGF-BB and 0.5 U/ml heparin): 586 CPM
- 3H Thymidine (CPM Incorporated), (-) Heparin (12.5 μM with 1 ng/ml PDGF-BB): 870 CPM
- 3H Thymidine (CPM Incorporated), (+) 0.5 U/ml Heparin (25 μM with 1 ng/ml PDGF-BB and 0.5 U/ml heparin): 220 CPM
- 3H Thymidine (CPM Incorporated), (-) Heparin (25 μM with 1 ng/ml PDGF-BB): 334 CPM
- 3H Thymidine (CPM Incorporated), (+) 0.5 U/ml Heparin (50 μM with 1 ng/ml PDGF-BB and 0.5 U/ml heparin): 211 CPM
- 3H Thymidine (CPM Incorporated), (-) Heparin (50 μM with 1 ng/ml PDGF-BB): 309 CPM
- Effect of adding heparin to the compound on [3H] thymidine incorporation (in words) (0.5 U/ml unfractionated heparin, 1 ng/ml PDGF-BB): further inhibition
- IC50 (Papio anubis, 20 h, read-out: ED50 for the inhibition of PDGF-BB mitogenic activity): ~12.5 µM
